Consider two compounds from US5298494A, “Monosaccharides having anti-proliferation and anti-inflammatory activity, compositions and uses thereof” (Greenwich Pharmaceuticals Incorporated, priority 1993, dated 1994).

Series [1] has as its system T lymphocytes (normal mouse spleen cells) stimulated with ConA. As to the kind of experiment: Mouse Spleen Cell ConA Blastogenesis Assay. The following applies: control compound, concentration not given. It is filed as cell-based, mouse (C57Bl/6).
Series [2] has as its system BUD-8 human skin fibroblasts. Description: Fibroblast assay: proliferation of BUD-8 skin cell fibroblasts. In kind it is cell-based. The following applies: concentration not given. Here is the method: The human skin cell fibroblast line, BUD-8 was obtained prior to each assay from the American Type Culture Collection. This is a fibroblast-like cell line which was originally derived from the normal skin of a person.
BUD-8 cell cultures were expanded for use in 25 cm^2 flasks at 37° C. in an atmosphere of 5% CO2 in air. At approximately 4-5 five day intervals, or when confluence was reached, the cells were passaged. This was accomplished by detaching the cells with a Teflon scraper, washing and reseeding the cells at a lower density into fresh tissue culture flasks.
(§1) The effect of the compound of the present invention on the proliferative capacity of human BUD-8 skin fibroblasts was measured with the use of a ^3 H-thymidine incorporation assay using culture conditions which were similar to those used for a Con-A blastogenesis assay, described previously. Cultured skin cells were detached from the surface of tissue culture flasks mechanically with a Teflon scraper. The cells were washed, resuspended in incubation medium and the viabilities were determined. These cells were then plated in triplicate at a density of 2×10^3 cells/0.1 ml/microtiter well for the proliferation assay and a density of 1×10^4 cells/0.1 ml/microtiter well for the assays to quantitate PGE2 and LTB4. To these cells was added incubation medium containing indomethacin to inhibit prostaglandin production, or nordihydroguaiaretic acid (NDGA) to inhibit leukotriene production (positive controls).
After 3 days of culture, 1 uCi ^3 H-thymidine was added in a 50 ul volume to each culture well of the microtiter plates. Eighteen hours later, each of the BUD-8 cultures was examined morphologically for evidence of compound-induced toxicity such as cell rounding or granularity. The thymidine-pulsed cells were then precipitated and the amount of ^3 H-thymidine incorporated was counted in a liquid scintillation counter.
The concentrations of the compounds of the invention which were used in these assays were:
The incubation medium used for culturing the BUD-8 cells was RPMI-1640 medium containing 10% fetal bovine serum, 100 ug/ml streptomycin, 100 U/ml penicillin, 0.2M Hepes buffer solution, 5×10^-5 M 2-mercaptoethanol and 2 mM glutamine.

The test system of series [3] is LTB4 production by BUD-8 skin cell fibroblasts. Description: LTB4 production by BUD-8 skin cell fibroblasts (radioimmunoassay). The following applies: concentration not given. In kind it is cell-based, human. On the procedure: as §1
(§2) After 18 hours of culture, samples of the BUD-8 skin cell supernatants were collected from one set of microtiter plates and frozen until assayed for PGE2 or for LTB4 content using the radioimmunoassays described below.
Levels of LTB4 in aliquots of BUD-8 skin cell cultures supernatants were quantitated by radioimmunoassay (New England Nuclear). Briefly, into each polyproplyene tube were mixed 0.1 ml anti-LTB4, 0.1. ml ^3 H-LTB4 and 0.1 ml LTB4 standard or LTB4 containing sample. The BUD-8 skin cell culture supernatants were used directly in the radioimmunoassay. Tubes were refrigerated overnight. A charcoal solution (0.5 ml of 0.5% charcoal Norit A) was added and each tube was centrifuged. The radioactivity in the supernatant was then counted in a liquid scintillation counter.

Series [4] concerns PGE2 production by BUD-8 skin cell fibroblasts. As to the kind of experiment: PGE2 production by BUD-8 skin cell fibroblasts (radioimmunoassay). It is filed as cell-based, human. Particulars: concentration not given. Here is the method: as §1, §2
A radioinmunoassay (New England Nuclear) was used to quantitate PGE2 levels in BUD-8 skin cell culture supernatants. Briefly, into each polypropylene tube were mixed 0.1 ml anti-PGE2, 0.1 ml ^125 1-PGE2 and 0.1 ml PGE2 standard or PGE2 containing sample. The BUD-8 skin culture supernatants were diluted 1:2 prior to addition to the radioimmunoassay. Tubes were refrigerated overnight. A polyethylene glycol solution (16%, 6,000 m.w.) was then added to precipitate immune complexes and the radioactivity in the precipitate was counted in a gamma counter.

In series [5] the test system is GS-109-V-20 human skin cell fibroblasts. Description: Fibroblast assay: proliferation of GS-109-V-20 skin cell fibroblasts. The following applies: for effect on GS-109-V-20 fibroblast proliferation in words: text. In kind it is cell-based. On the procedure: The effect of methyl 3-O-3'-(N',N'-dimethylamino-n-propyl)-6-deoxy-D-glucopyranoside on the proliferative capacity of human GS-109-V-20 skin fibroblasts was measured with the use of ^3 H-thymidine incorporation assay. Cultured skin cells were detached from the surface of tissue culture flasks mechanically with a Teflon scraper. The cells were washed, resuspended in incubation medium and the viabilities determined. These cells were then plated in triplicate at a density of 1×10^3 cells/0.1 ml/microtiter well. To these cells was added 0.1 ml incubation medium containing the methyl 3-O-3'-(N',N'-dimethylamino-n-propyl)-6-deoxy-D-glucopyranoside compound.
(§3) After 3 days of culture, 1#uCi ^3 H-thymidine was added in 50 ul volume to each culture well of the microtiter plates. Eighteen hours later, each of the GS-109-V-20 cultures was examined morphologically for evidence of drug-induced toxicity such as cell rounding or granularity. The ^3 H-thymidine-pulsed cells were then precipitated and the amount of ^3 H-thymidine incorporation was counted on a liquid scintillation counter.
Methyl 3-O-3'-(N',N'-dimethylamino-n-propyl)-6-deoxy-D-glucopyranoside was suspended directly into the medium by extensive sonication, without being filter-sterilized. A range of doses of this compound was used to measure effects of this compound upon GS-109-V-20 cell proliferation. The following doses were used:
The human skin cell fibroblast line, GS-109-V-20, was obtained from the American Type Culture-Collection. […] These cells were selected for use because they are considered to exist in an initiated state, as opposed to being normal or transformed, and have a more extensive population doubling time and survival period in culture than do normal fibroblasts. In this regard, they would more closely reflect the biological characteristics of psoriatic or rheumatoid synovial fibroblasts which also proliferate more extensively than do normal fibroblasts, but not as extensively as immortalized transformed tumor cells.
The number of GS-109-V-20 cells was expanded for use in the described assays by culture in 25 cm^2 flasks at 37° C. in an atmosphere of 5% CO2 in air. At approximately 4-5 day intervals, or when confluence was reached, the cells were passaged. This was accomplished by detaching the cells by trypsinization, washing and reseeding the cells at a lower density into fresh tissue culture flasks.

The test system of another series is GS-109-V-20 skin cells. Description: Morphological examination of GS-109-V-20 cultures for drug-induced toxicity. In kind it is cell-based, human. Here is the method:
as §3

Structures are written as SMILES.

On to `CC(Cc1ccc(O)c(O)c1)C(C)Cc1ccc(O)c(O)c1` (centres unmarked) [NDGA, nordihydroguaiaretic acid, reference compound], for which, in series [1] (ConA 1 ug/ml), the “% effect on ConA blastogenic response (positive control)” value is on record as -14% and the “Blastogenic response of normal spleen cells to Con-A (positive control)” value is 47.6 ± 5.0 × 10^-3 cpm. Moreover, in series [1] (ConA 4 ug/ml), the “% effect on ConA blastogenic response (positive control)” value is -24% and the “Blastogenic response of normal spleen cells to Con-A (positive control)” value is 64.1 ± 9.2 × 10^-3 cpm. Also, in series [2], the “% effect on BUD-8 proliferation (positive control)” value is on record as -5% and the “^3 H-Thymidine uptake by BUD-8 skin cells (positive control)” value is on record as 6,925 ± 313 cpm. Moreover, in series [3], the “LTB4 in supernatant (positive control)” value was 19.9 ± 1.5 pg LTB4 100 ul supernatant and the “calculated LTB4 production/10^5 BUD-8 cells (positive control)” value is listed as 794 pg per 10^5 cells. Further, in series [3] (1080 min), the “% effect on LTB4 production (positive control)” value is listed as -45%. Besides, in series [4], the “PGE2 in supernatant (positive control)” value is on record as 14.7 ± 0.8 pg PGE2 /50 ul supernatant and the “calculated PGE2 production/10^5 BUD-8 cells (positive control)” value is 933 pg per 10^5 cells. For the same compound, the “% effect on PGE2 production (positive control)” value in series [4] (1080 min) is recorded as -8%. Also, the “^3 H-Thymidine uptake by GS-109-V-20 skin cells (control compound)” value in series [5] (2 × 10^-6 M Indomethacin, 2 × 10^-6 N NDGA) is 3,179 ± 489 cpm.

On to `COC1O[C@H](C)[C@@H](O)[C@H](OCCCN(C)C)[C@H]1O` (stereo partly drawn) [V, Methyl 3-O-3'-(N',N'-dimethylamino-n-propyl)-6-deoxy-D-glucopyranoside], for which the “^3 H-Thymidine uptake by GS-109-V-20 skin cells” value in series [5] (0.001 ug/ml) is 2,557 ± 258 cpm; in series [5] (0.01 ug/ml), 976 ± 469 cpm; in series [5] (0.1 ug/ml), 1,052 ± 177 cpm; in series [5] (1 ug/ml), 1,237 ± 301 cpm; in series [5] (2.5 ug/ml), 1,044 ± 106 cpm; in series [5] (10 ug/ml), 900 ± 189 cpm. The “^3 H-Thymidine uptake by GS-109-V-20 skin cells” value is 946 ± 41 cpm in series [5] (25 ug/ml) and 647 ± 541 cpm in series [5] (100 ug/ml). Also, the inhibition at 0.001 µg/mL in series [5] (Homo sapiens, Fibroblast, 0.001 ug/ml, read-out: % effect on GS-109-V-20 proliferation) worked out at 12%. Further, the inhibition at 0.01 µg/mL in series [5] (Homo sapiens, Fibroblast, 0.01 ug/ml, read-out: % effect on GS-109-V-20 proliferation) turned out to be 66%. The inhibition at 0.1 µg/mL in series [5] (Homo sapiens, Fibroblast, 0.1 ug/ml, read-out: % effect on GS-109-V-20 proliferation) is 64%. Also, the inhibition at 1 µg/mL in series [5] (Homo sapiens, Fibroblast, 1 ug/ml, read-out: % effect on GS-109-V-20 proliferation) is 58%. Further, the inhibition at 2.5 µg/mL in series [5] (Homo sapiens, Fibroblast, 2.5 ug/ml, read-out: % effect on GS-109-V-20 proliferation) was determined as 64%. Also, the inhibition at 10 µg/mL in series [5] (Homo sapiens, Fibroblast, 10 ug/ml, read-out: % effect on GS-109-V-20 proliferation) is 69%. Moreover, in series [5] (Homo sapiens, Fibroblast, 25 ug/ml, read-out: % effect on GS-109-V-20 proliferation), the inhibition at 25 µg/mL was found to be 68%. The inhibition at 100 µg/mL in series [5] (Homo sapiens, Fibroblast, 100 ug/ml, read-out: % effect on GS-109-V-20 proliferation) was 78%. The “effect on GS-109-V-20 fibroblast proliferation in words” value was “inhibitory effects on the proliferation of GS-109-V-20 human skin cell fibroblasts” in series [5] (listed as Methyl 3-O-3'-(N',N'-dimethylamino-n-propyl)-6-deoxy-D-glucopyranoside) and “A significant inhibitory effect was observed in a non-dose-dependent manner” in series [5] (listed as methyl 3-O-3'-(N',N'-dimethylamino-n-propyl)-6-deoxy-D-glucopyranoside). The “cytotoxicity in GS-109-V-20 cultures, in words” value in the series on GS-109-V-20 skin cells is recorded as “without evidence of cytotoxicity”.
